According to patent US11351178B2, “Selective HDAC6 inhibitors” (ITALFARMACO S.P.A., priority 2017, dated 2022):

Columns and labels:
[1] = Stability to Phase I metabolism in rat S9 liver fraction; type: in vitro ADME; conditions: after 90 min, 37° C.
Outline: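 Phase I stability in human and rat hepatic S9 at 37 °C, sampled up to 90 min. Samples were stopped with acidified acetonitrile on ice, then quantified by HPLC-UV or LC-MS/MS.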

[2] = Stability to Phase I metabolism in human S9 liver fraction; type: in vitro ADME
Protocol: Test compounds were incubated in rat and human liver S9 fraction at 37° C. up to 90 minutes in order to evaluate their stability to Phase I metabolism by hepatic enzymes. […] The reaction was stopped placing samples on ice bath and adding acidified acetonitrile. After centrifugation (10 minutes at 14000 rpm) an aliquot of the supernatant was diluted water, filtered with 0.45 μm regenerated cellulose syringe filters and injected in HPLC-UV or in LC-MS/MS. The percentages of the amount remaining at the various incubation times with respect to the initial amount were calculated. The intrinsic clearance was also calculated.

Stability in rat plasma = type: in vitro ADME; conditions: after 4 hours, 37° C.
Outline: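 Compounds incubated at 37° C in rat or human plasma at 50 μM (UV/HPLC) or 1 or 2 μM (LC-MS/MS) for 0–4 h. Reaction stopped with acidified acetonitrile on ice; percent remaining versus initial amount and plasma half-life calculated.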

recombinant human HDAC6 = biological target: T1, recombinant human HDAC6 (Homo sapiens, UniProt Q9UBN7); assay: Enzymatic screening on recombinant human HDAC6; type: biochemical; conditions: Table 2; read-out: HDAC6 IC50
T1 sequence (Q9UBN7 1-1215): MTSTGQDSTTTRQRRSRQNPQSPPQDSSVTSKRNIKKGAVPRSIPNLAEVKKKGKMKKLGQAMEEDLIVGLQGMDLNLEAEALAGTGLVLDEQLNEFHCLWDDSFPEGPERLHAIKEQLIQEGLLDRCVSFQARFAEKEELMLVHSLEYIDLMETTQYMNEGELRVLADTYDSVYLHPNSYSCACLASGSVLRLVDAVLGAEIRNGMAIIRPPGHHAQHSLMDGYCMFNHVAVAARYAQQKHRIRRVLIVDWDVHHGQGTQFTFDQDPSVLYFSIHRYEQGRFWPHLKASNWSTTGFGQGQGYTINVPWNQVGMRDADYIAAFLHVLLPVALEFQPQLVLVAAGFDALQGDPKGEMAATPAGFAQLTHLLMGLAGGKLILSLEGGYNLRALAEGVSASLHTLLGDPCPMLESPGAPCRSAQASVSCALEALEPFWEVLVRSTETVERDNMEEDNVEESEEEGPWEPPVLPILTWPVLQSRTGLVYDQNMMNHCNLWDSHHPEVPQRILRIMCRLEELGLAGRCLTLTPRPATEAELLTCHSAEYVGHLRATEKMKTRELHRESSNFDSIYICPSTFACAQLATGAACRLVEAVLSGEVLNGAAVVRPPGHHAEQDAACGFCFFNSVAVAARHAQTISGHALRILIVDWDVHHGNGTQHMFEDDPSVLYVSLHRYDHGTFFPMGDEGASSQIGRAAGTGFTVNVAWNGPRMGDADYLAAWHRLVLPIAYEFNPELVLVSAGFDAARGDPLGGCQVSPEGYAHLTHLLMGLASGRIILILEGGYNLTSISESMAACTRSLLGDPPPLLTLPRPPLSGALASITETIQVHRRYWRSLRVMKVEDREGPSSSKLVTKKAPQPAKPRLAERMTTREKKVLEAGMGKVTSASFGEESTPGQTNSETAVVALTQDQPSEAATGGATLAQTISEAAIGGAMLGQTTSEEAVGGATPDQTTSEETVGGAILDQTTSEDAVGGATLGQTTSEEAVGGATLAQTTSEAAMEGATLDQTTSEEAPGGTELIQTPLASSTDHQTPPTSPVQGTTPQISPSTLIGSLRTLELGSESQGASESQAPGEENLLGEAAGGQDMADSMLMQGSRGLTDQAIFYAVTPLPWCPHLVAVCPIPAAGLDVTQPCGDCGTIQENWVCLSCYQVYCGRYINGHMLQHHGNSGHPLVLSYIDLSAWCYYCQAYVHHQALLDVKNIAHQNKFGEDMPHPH
Outline: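 Recombinant human HDAC isoforms were incubated with compound at 30 °C for isoform-specific times. Fluor de Lys, Fluor de Lys-Green or trifluoroacetyl-lysine substrate in Tris-HCl pH 8 buffer with NaCl, Tween-20 and glycerol was then added, followed by reaction at 30 °C.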

[3] = Stability in human plasma; type: in vitro ADME; conditions: after 4 hours, 37° C.
Protocol: In order to evaluate the stability to circulating enzymes, test compounds were incubated in human and rat plasma at 37° C. in a thermostated oscillating bath. Each test compound was incubated at μM (50 μM when the samples were analysed by UV/HPLC, 1 or 2 μM when the samples were analysed by LC-MS/MS) concentration for 0, 15, 30 min and 1, 2 and 4 hours. The reaction was stopped placing tubes on ice bath and adding acidified acetonitrile. After centrifugation for 10 minutes at 14000 rpm, an aliquot of the supernatant was diluted with water, filtered with 0.45 μm syringe filters and injected in HPLC-UV or in LC-MS/MS. The percentages of amount remaining at the various times of incubation with respect to initial amount were calculated. The half-life in plasma was also calculated.

[4] = system: B 697 promyelocytic cell line; assay: Cytotoxicity on 697 cell line (CellTiter 96); type: cell-based; conditions: 72 hours incubation, read-out: 697 TOXICITY
Outline: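 Mitochondrial-function readout (CellTiter 96 Aqueous One) after 72 h compound exposure, begun 24 h post-seeding. Dose ranges: 697 cells, 1 to 10000 nM at 2×10^4 cells/well; PBMCs, 1.5 to 10000 nM at 5×10^5 cells/well.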

[5] = system: peripheral blood mononuclear cells (PBMCs); assay: Cytotoxicity on PBMCs (CellTiter 96); type: cell-based; conditions: PBMC, 72 h; read-out: PBMC TOXICITY (72 h)
Protocol: Cytotoxic activity was evaluated on B 697 […] cell line for all synthesized compounds and on peripheral blood mononuclear cells (PBMCs) for compounds showing a good potency/selectivity profile.
Cells were seeded in plate (2×10^4 cells per well for 697, 5×10^5 cells per well for PBMCs). The test compounds (concentrations from 1.5 nM to 10000 nM for PBMCs and from 1 nM to 10000 nM for 697) were added after 24 hours and incubated 72 hours. The molecules cytotoxic activity was evaluated using CellTiter 96© Aqueous One Solution Cell Proliferation Assay (Promega), which measures the mitochondria function, following the manufacturer's instructions.

| residual percentage in rat S9 fraction [1] [%] | residual percentage in rat plasma (Stability in rat plasma) [%] | IC50 (recombinant human HDAC6) [nM] | residual percentage in human plasma [3] [%] | residual percentage in human S9 fraction ([2]; human, 90 min, pH 7.4) [%] | Compound | residual percentage in human S9 fraction ([2]; human liver S9 fraction, after 90 min, 37° C.) [%] | IC50 [4] [nM] | IC50 [5] [nM] |
| --- | --- | --- | --- | --- | --- | --- | --- | --- |
| 6 | 63 | 5 | 95 | 51 | O=C(NO)c1cc(F)c(Cc2nnc(-c3ccccc3)s2)c(F)c1 [compound 198, 3,5-difluoro-N-hydroxy-4-((5-phenyl-1,3,4-thiadiazol-2-yl)methyl)benzamide] | – | – | – |
| 17 | 90 | 31 | 100 | 43 | O=C(NO)c1cc(F)c(Sc2nnc(-c3ccccc3)o2)c(F)c1 [comp. 192, 3,5-difluoro-4-[(5-phenyl-1,3,4-oxadiazol-2-yl)sulfanyl]benzenecarbohydroxamic acid] | – | – | – |
| 23 | 99 | 53 | 89 | 26 | O=C(NO)c1cc(F)c(Sc2nnc(-c3cncc(Br)c3)s2)c(F)c1 [compound 196, 4-[[5-(5-bromo-3-pyridyl)-1,3,4-thiadiazol-2-yl]sulfanyl]-3,5-difluoro-benzenecarbohydroxamic acid] | – | – | – |
| 57 | 92 | 6 | 90 | 75 | Cn1c(Sc2c(F)cc(C(=O)NO)cc2F)nnc1-c1ccco1 [comp. 199, 3,5-difluoro-4-[[5-(2-furyl)-4-methyl-1,2,4-triazol-3-yl]sulfanyl]benzenecarbohydroxamic acid] | – | – | – |
| 7 | 93 | 7 | 90 | 49 | O=C(NO)c1ccc(Sc2nnc(-c3ccccc3)o2)cc1 [comp. 188, 4-[(5-phenyl-1,3,4-oxadiazol-2-yl)sulfanyl]benzenecarbohydroxamic acid] | – | – | – |
| 67 | 86 | 8 | 76 | 59 | CCN(CC)Cc1ccc(-c2nnc(Sc3c(F)cc(C(=O)NO)cc3F)n2C)o1 [comp. 211, 4-[[5-[5-(diethylaminomethyl)-2-furyl]-4-methyl-1,2,4-triazol-3-yl]sulfanyl]-3,5-difluoro-benzenecarbohydroxamic acid] | – | – | – |
| 17 | 101 | 55 | 92 | 54 | CN(c1ccc(-c2nnc(Sc3c(F)cc(C(=O)NO)cc3F)s2)cc1)S(C)(=O)=O [compound 187, 3,5-difluoro-4-[[5-[4-[methyl(methylsulfonyl)amino]phenyl]-1,3,4-thiadiazol-2-yl]sulfanyl]benzenecarbohydroxamic acid] | – | – | – |
| 32 | 96 | 8 | 102 | 37 | COCCN(CCOC)c1cncc(-c2nc(Cc3c(F)cc(C(=O)NO)cc3F)no2)c1 [compound 200, 4-[[5-[5-[bis(2-methoxyethyl)amino]-3-pyridyl]-1,2,4-oxadiazol-3-yl]methyl]-3,5-difluoro-benzenecarbohydroxamic acid] | – | – | – |
| 3 | 89 | 11 | 99 | 29 | O=C(NO)c1cc(F)c(Cc2noc(-c3ccccc3)n2)c(F)c1 [compound 194, 3,5-difluoro-N-hydroxy-4-((5-phenyl-1,2,4-oxadiazol-3-yl)methyl)benzamide] | – | – | – |
| 77 | 0 | 20 | – | – | O=C(NO)c1ccc(Cn2nnc(-c3nccc4ccccc34)n2)cc1 [comp. 87, 4-[[5-(1-isoquinolyl)tetrazol-2-yl]methyl]benzenecarbohydroxamic acid] | – | 6660 | 6000 |
| 63 | 81 | 6 | 100 | 71 | O=C(NO)c1ccc(Cc2noc(-c3ccnc(N4CCOCC4)c3)n2)cc1 [compound 193, 4-[[5-(2-morpholino-4-pyridyl)-1,2,4-oxadiazol-3-yl]methyl]benzenecarbohydroxamic acid] | – | – | – |
| 71 | 79 | 27 | – | – | O=C(NO)c1cc(F)c(Cn2nnnc2-c2ccco2)c(F)c1 [comp. 92, 3,5-difluoro-4-[[5-(2-furyl)tetrazol-1-yl]methyl]benzenecarbohydroxamic acid] | – | > 10000 | > 10000 |
| 9 | 75 | 23 | – | – | Cn1c(Sc2c(F)cc(C(=O)NO)cc2F)nnc1C(C)(C)c1cccnc1 [comp. 186, 3,5-difluoro-4-[[4-methyl-5-[1-methyl-1-(3-pyridyl)ethyl]-1,2,4-triazol-3-yl]sulfanyl]benzenecarbohydroxamic acid] | – | 10400 | ≥ 100000 |

| Compound | residual percentage in rat S9 fraction [1] [%] | residual percentage in rat plasma (Stability in rat plasma) [%] | IC50 (recombinant human HDAC6) [nM] | residual percentage in human plasma [3] [%] | residual percentage in human S9 fraction ([2]; human, 90 min, pH 7.4) [%] | residual percentage in human S9 fraction ([2]; human liver S9 fraction, after 90 min, 37° C.) [%] | IC50 [4] [nM] | IC50 [5] [nM] |
| --- | --- | --- | --- | --- | --- | --- | --- | --- |
| O=C(NO)c1cc(F)c(Cc2noc(-c3cncc(N4CC5(COC5)C4)c3)n2)c(F)c1 [compound 201, 3,5-difluoro-4-[[5-[5-(2-oxa-6-azaspiro[3.3]heptan-6-yl)-3-pyridyl]-1,2,4-oxadiazol-3-yl]methyl]benzenecarbohydroxamic acid] | 34 | 95 | 16 | 88 | – | 75 | – | – |
